In assay [1] the target is T1, human SIRT3 (Homo sapiens, UniProt Q9NTG7).
T1 construct: The SIRT3 protein used in the assays corresponded to amino acid residues 102-399 of human SIRT3; His-tag (N); made in house; host or cells: E. coli
T1 sequence (Q9NTG7 102-399): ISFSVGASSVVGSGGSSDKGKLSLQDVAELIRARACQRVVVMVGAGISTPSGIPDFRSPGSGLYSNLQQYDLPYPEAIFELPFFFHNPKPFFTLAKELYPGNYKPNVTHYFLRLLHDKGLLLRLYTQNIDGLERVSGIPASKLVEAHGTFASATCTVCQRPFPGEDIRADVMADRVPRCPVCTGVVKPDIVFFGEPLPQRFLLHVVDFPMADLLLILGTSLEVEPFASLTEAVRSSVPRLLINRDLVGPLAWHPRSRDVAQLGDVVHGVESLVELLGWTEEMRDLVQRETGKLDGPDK
Description: Fluorescence polarization assay of SIRT3 activity (Histone H4-based peptide substrate). The class given is biochemical. The following applies: inhibition of SIRT3 (Table 7). The source says: A fluorescence polarization assay was used to identify modulators of SIRT3 activity. The same assay may be used to identify modulators of any sirtuin protein. The assay utilizes a peptide substrate based on a fragment of Histone H4, a known sirtuin deacetylation target. The substrate contains a peptide having 14 amino acid residues as follows: Biotin-GASSHSK(Ac)VLK(MR121) (SEQ ID NO: 3) wherein K(Ac) is an acetylated lysine residue. The peptide is labeled with the fluorophore MR121 (excitation 635 nm/emission 680 nm) at the C-terminus and biotin at the N-terminus.
The peptide substrate is exposed to a sirtuin protein in the presence of NAD^+ to allow deacetylation of the substrate and render it sensitive to cleavage by trypsin. Trypsin is then added and the reaction is carried to completion (i.e., the deacetylated substrate is cleaved) releasing the MR121 fragment. Streptavidin is then added to the reaction where it can bind both the uncleaved substrate (i.e., any remaining acetylated substrate) and the non-fluorescent portion of the cleaved peptide substrate (i.e., the biotin containing fragment). The fluorescence polarization signal observed for the full length peptide substrate bound to streptavidin is higher than the fluorescence polarization signal observed for the released MR121C-terminal fragment. Therefore, the fluorescence polarization obtained is inversely proportional to the level of deacetylation (e.g., the signal is inversely proportional to the activity of the sirtuin protein). Results are read on a microplate fluorescence polarization reader (Molecular Devices Spectramax MD) with appropriate excitation and emission filters.
The fluorescence polarization assays may be conducted as follows: 0.5 μM peptide substrate and 50 μM βNAD^+ is incubated with 2 nM of SIRT3 for 60 minutes at 37° C. in a reaction buffer (25 mM Tris-acetate pH8, 137 mM Na—Ac, 2.7 mM K—Ac, 1 mM Mg—Ac, 0.1% Pluronic F127, 10 mM CaCl2, 1 mM TCEP, 0.025% BSA). Test compounds are solubilized in DMSO and are added to the reaction at 11 concentrations ranging from 0.7 μM to 100 μM. The SIRT3 protein used in the assays corresponded to amino acid residues 102-399 of human SIRT3 with an N-terminal His-tag. […] Fluorescent polarization is determined at excitation (650 nm) and emissions (680 nm) wavelengths. The level of activity of the sirtuin protein in the presence of the various concentrations of test compound are then determined and may be compared to the level of activity of the sirtuin protein in the absence of the test compound, and/or the level of activity of the sirtuin proteins in the negative control (e.g., level of inhibition) and positive control (e.g., level of activation) described below. […]

In assay [2] the target is T2, SIRT1 (Homo sapiens, UniProt Q96EB6).
T2 sequence (Q96EB6 1-747): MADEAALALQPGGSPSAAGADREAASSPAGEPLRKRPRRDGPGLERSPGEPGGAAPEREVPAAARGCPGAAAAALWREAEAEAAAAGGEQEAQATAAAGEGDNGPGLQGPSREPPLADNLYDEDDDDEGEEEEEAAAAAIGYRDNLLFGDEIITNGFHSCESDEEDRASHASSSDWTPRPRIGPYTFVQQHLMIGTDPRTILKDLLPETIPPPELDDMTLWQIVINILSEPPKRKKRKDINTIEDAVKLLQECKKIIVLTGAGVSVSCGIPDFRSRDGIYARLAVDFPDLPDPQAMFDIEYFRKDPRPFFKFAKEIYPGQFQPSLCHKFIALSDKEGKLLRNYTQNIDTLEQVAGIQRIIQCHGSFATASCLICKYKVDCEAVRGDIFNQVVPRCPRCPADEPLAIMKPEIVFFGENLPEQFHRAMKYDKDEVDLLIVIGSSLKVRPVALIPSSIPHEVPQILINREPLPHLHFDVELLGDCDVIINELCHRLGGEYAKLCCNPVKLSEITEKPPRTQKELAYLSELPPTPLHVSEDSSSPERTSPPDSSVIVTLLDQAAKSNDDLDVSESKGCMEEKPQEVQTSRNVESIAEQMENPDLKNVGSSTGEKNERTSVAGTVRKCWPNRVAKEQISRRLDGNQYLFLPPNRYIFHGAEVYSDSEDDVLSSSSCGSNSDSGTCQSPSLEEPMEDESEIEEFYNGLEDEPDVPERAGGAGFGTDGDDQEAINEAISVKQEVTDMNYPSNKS
Description: SIRT1 fluorescence polarization or mass spectrometry based assay (format not given). It counts as biochemical. The following applies: inhibition of SIRT1 (Table 5).

SMILES strings stand for the structures.

In assay [1], `COc1ccc(C(=O)Nc2cccc(/C=C/C(=O)N3CCCNCC3)c2)cc1OC` [Compound 18] returned an IC50 of 51 to 100 µM. Turning to `COc1ccccc1C(=O)Nc1cccc(/C=C/C(=O)N2CCCNCC2)c1` [Compound 15], the results for the IC50 in assay [1] and in assay [2] were 51 to 100 µM and 101 to 150 µM, respectively. The molecule `N#Cc1cccc(C(=O)Nc2ccc(-c3cc(C(N)=O)co3)cc2)c1` [Compound 16] came in with an IC50 in assay [1] of 101 to 150 µM. On the same count and under the same terms, for `O=C(Nc1cccc(/C=C/C(=O)N2CCCNCC2)c1)c1ccc(F)c(C(F)(F)F)c1` [Compound 17] the value was 51 to 100 µM.

For the origin of these results see patent US20090163476A1, “N-Phenyl Benzamide Derivatives as Sirtuin Modulators” (Sirtris Pharmaceuticals, Inc., priority 2005, published 2009).
